Measurements taken from patent US20080187911A1, “Methods and compositions for analysis of mitochondrial-related gene expression” (priority 2003, published 2008).

Columns and labels:
[1] = tested on: mouse mitochondrial genes in AML-12 mouse liver cells; assay: Microarray analysis of the effects of rotenone on expression of mouse mitochondrial genes; format: cell-based; details: AML-12 mouse liver cells in culture
Text: FIG. 4. The effects of rotenone, an inhibitor of mitochondrial Complex I, on the expression of mouse mitochondrial genes in AML-12 mouse liver cells in culture.
The effects of rotenone, an inhibitor of mitochondrial Complex I, on the expression of mouse mitochondrial genes in AML-12 mouse liver cells in culture were examined (FIG. 4; Table 4). […] Spots A1-G11 represent mitochondrial related nuclear encoded genes; spots G12-H12 represent the 13 genes encoded by mitochondrial DNA. It should be noted that in subsequent microarray designs (constructions) the mitochondrial DNA encoded genes G12-H12 were removed from the filters and arrayed separately. Thus, the G12-H12 spots were replaced with nuclear encoded genes. […] E4 and E5 represent the […] and 16S mitochondrial ribosomal RNAs.

[2] = tested on: mitochondrial DNA encoded gene expression; assay: Microarray analysis of mitochondrial DNA encoded gene expression in response to 3-nitropropionic acid; format: cell-based; details: 3 NPA treatments at 6, 12 and 26 hours; inhibition of Complex II (succinic dehydrogenase)
Protocol: FIGS. 5A-5B. Analysis of mitochondrial DNA encoded gene expression. FIG. 5A—response to 3-nitropropionic acid, an inhibitor of Complex II—succinic dehydrogenase. […] FIG. 5B-analysis of mitochondrial DNA encoded gene expression in trypanosome infected heart tissue.
Analysis of mitochondrial DNA encoded gene expression in response to 3-nitropropionic acid (3NPA), an inhibitor of Complex II—succinic dehydrogenase was performed (FIG. 5A, Table 5). The 3 NPA treatments were at 6, 12 and 26 hours.

## C=C(C)[C@H]1Cc2c(ccc3c2O[C@@H]2COc4cc(OC)c(OC)cc4[C@@H]2C3=O)O1 [rotenone]
[1]; genes named: A11 ATP synthase lipid binding proteins, B8 ADP, ATP carrier protein, B9 cytochrome C oxidase chain VIIa, D12 chaperonin 10, E12 pyruvate carboxylase, H7 Complex I: Protein Dehydrogenase chain 3
  mRNA pool levels of mitochondrial-related genes on the microarray: up-regulated
[1]; inhibition of Complex I, suggested compensatory response
  production of mRNAs of Complex I proteins (H7, H10): may stimulate the production of mRNAs of Complex I proteins (H7, H10)

## O=C(O)CC[N+](=O)[O-] [3-nitropropionic acid]
[2]
  synthesis of mitochondrial encoded mRNAs and ribosomal RNAs: stimulates the synthesis of mitochondrial encoded mRNAs and the 23S and 16S ribosomal RNAs
